A short description of data set [1]: Metal oxide dispersibility test (titanium oxide). Format: physicochemical. The note with it: 0.25 g compound, 0.50 g water, 0.10 g titanium oxide (IV); visual.
The next data set has as its system DNA. Briefly: DNA long-term stability, 50% aqueous solution. The note with it: 40° C., 80% RH.
For data set [2] the following is noted: 0.25 g compound, 0.50 g water, 0.10 g barium titanate; visual.
The nature of data set [3]: Carbon nanotube dispersibility test. Format: physicochemical. The following applies: 0.25 g compound, 0.75 g water, 0.025 g carbon nanotubes; visual.
Data set [4] deals with T1, urease (Canavalia ensiformis, UniProt P07374). In kind it is biochemical, sword bean. The note with it: urease in 50 wt % aqueous solution of compound; 40° C., 80% RH; after 30 days; Stabilizer:Enzyme = 1:1.
Data set [5] is described as follows: Organic dye dispersibility test. In kind it is physicochemical. The following applies: 0.2 g compound, 0.7 g water, 0.1 g Vali Fast Black 3830; ultrasonic dispersion; after 24 hours; visual.
Data set [6] deals with T2, cytochrome C (Equus caballus, UniProt P00004).
T2 construct: a reagent produced by NACALAI TESQUE, INC; (Horse Heart, molecular weight 12384) was used; purchased NACALAI TESQUE, INC; host or cells: horse heart (tissue origin)
Briefly: Protein long-term stability (IR and UV spectrum), solid sample. On the set-up: species or system Horse. The following applies: cytochrome C, solid sample, 40° C., 80% RH, after 30 days.

The conditions of data set [7]: dispersion liquid dried at 50° C. under reduced pressure for three hours, 0.50 g water added, remixed; visual.
For data set [8] the following is noted: 0.25 g compound, 0.50 g water, 0.10 g zinc oxide; visual.
Data set [9] deals with T2, cytochrome C. As to the kind of experiment: Protein long-term stability, 50% aqueous solution. On the set-up: species or system Horse. The following applies: cytochrome C in 50 wt % aqueous solution of compound; 40° C.; after 30 days; 1:1. The protocol:
At first, changes in amide absorption by IR spectrum were precisely observed, and there were confirmed the higher-order structures of protein (turn, α-helix, random coil, β-sheet). The amide I region (1,600 to 1,700 cm^−1) and the amide II region (1,500 to 1,600 cm^−1) were measured by ATR method using a Fourier transform infrared spectrophotometer (FT/IR-6100 by JASCO Corporation), and peaks were then detected based on a difference(s) between a cytochrome C-free organic ammonium salt sample (blank) and a cytochrome C-containing organic ammonium salt sample (sample).
Further, the activity state of cytochrome C (Fe^2+: reduced form, Fe^3+: oxidized form) was confirmed via absorptions in UV spectrum. The measurement was conducted using an ultraviolet-visible spectrophotometer and a quartz cell having an optical path width of 2 mm, immediately after diluting the cytochrome C-containing organic ammonium salt sample to 1% with a 50 mM phosphate buffer of pH 7.4 (prepared using 50 mM potassium dihydrogen phosphate and 50 mM dipotassium hydrogen phosphate).

The target in data set [10] is T1, urease. Format: biochemical, sword bean. The note with it: urease, 40° C., 80% RH, after 30 days, 1:1.
Data set [11] can be described thus: Metal oxide dispersibility test (zirconium oxide). Format: physicochemical. The note with it: 0.25 g compound, 0.50 g water, 0.10 g zirconium oxide (IV); visual.
The conditions of data set [12]: Vali Fast Black 3830 dispersion liquid dried at 50° C. under reduced pressure for three hours, 0.7 g water added, remixed; visual.
The target of data set [13] is T1, urease. In kind it is biochemical, sword bean. The following applies: solid sample, 40° C., 80% RH, after 30 days.
For data set [14] the following is noted: dispersion liquid dried at 50° C. under reduced pressure for three hours, 0.50 g water added, remixed; visual. The source holds these as a separate data set.

Read-outs that look alike come from different tables or passages of the source.

T1 sequence (P07374 whole entry, looked up): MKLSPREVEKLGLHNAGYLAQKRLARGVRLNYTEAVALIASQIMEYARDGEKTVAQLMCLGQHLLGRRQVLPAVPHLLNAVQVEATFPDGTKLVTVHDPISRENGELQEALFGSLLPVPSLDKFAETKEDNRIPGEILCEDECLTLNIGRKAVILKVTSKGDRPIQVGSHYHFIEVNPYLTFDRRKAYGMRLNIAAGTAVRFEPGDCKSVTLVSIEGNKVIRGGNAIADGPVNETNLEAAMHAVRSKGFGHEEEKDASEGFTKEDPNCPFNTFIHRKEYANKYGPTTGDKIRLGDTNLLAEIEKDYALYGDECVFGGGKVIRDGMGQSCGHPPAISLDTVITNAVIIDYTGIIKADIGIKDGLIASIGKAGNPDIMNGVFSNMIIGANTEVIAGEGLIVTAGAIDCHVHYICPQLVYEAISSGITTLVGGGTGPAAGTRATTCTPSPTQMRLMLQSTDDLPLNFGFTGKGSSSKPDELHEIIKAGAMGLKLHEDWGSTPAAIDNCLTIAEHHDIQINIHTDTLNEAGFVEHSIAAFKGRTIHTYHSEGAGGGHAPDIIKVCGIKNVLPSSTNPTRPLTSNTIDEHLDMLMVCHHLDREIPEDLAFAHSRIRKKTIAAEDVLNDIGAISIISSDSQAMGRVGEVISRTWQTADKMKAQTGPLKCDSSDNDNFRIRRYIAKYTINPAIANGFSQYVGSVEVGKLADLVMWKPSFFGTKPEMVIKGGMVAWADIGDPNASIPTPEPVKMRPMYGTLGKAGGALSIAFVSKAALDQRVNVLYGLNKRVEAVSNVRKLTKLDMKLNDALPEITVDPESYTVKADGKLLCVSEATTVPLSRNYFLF
T2 sequence (P00004 whole entry): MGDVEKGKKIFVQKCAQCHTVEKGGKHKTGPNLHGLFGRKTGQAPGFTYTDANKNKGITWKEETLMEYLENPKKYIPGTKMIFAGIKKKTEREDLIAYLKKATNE

Regarding `NC(CO)(CO)CO` [Working example 28], the Titanium oxide dispersibility result in [1] was “○ ○ ○ ○”. The “DNA long-term stability (after 30 days) Stabilizer: DNA = 1:1” value in the data set on DNA is “○ ○”. Moreover, the Barium titanate dispersibility entry in data set [2] is recorded as “○ ○ ○ ○”. The Carbon nanotube dispersibility entry in data set [3] is listed as “○ ○”. Besides, the “Enzyme activity retention rate(%) (after 30 days) Stabilizer: Enzyme = 1:1” value at urease [4] was determined as 15%; at urease [13] (Stabilizer:Enzyme = 1:1) it was 65%. In data set [5], the Dye dispersibility entry is given as “○ ○ ○ ○”. Besides, at cytochrome C [6] (Stabilizer:Protein = 0.1:1), the “Protein long-term stability (after 30 days) Stabilizer: Protein = 0.1:1” value was “◯”. The “Protein long-term stability (after 30 days) Stabilizer: Protein = 1:1” value on cytochrome C [6] (Stabilizer:Protein = 1:1) is recorded as “◯”. On cytochrome C [6] (Stabilizer:Protein = 10:1), the “Protein long-term stability (after 30 days) Stabilizer: Protein = 10:1” value is listed as “◯”. In addition, the “Redispersibility Zirconium oxide” value in data set [7] is listed as “○ ○ ○ ○”. For the same compound, in [8], the Zinc oxide dispersibility result is “○ ○ ○ ○”. Also, the “Protein long-term stability (after 30 days) Stabilize:Protein = 1:1” value on cytochrome C [9] is on record as “○ ○ ○”. Moreover, the “Enzyme activity retention rate (%) (after 30 days) Stabilizer:Enzyme = 1:1, Mixed by mortar” value on urease [10] (solid sample mixed by mortar) stood at 12%. The “Enzyme activity retention rate (%) (after 30 days) Stabilizer:Enzyme = 1:1, Solvent distilled away from dissolution solution” value at urease [10] (solid sample, solvent distilled away from dissolution solution) is given as 65%. In [11], the Zirconium oxide dispersibility entry is given as “○ ○ ○ ○”. In addition, the “Redispersibility Dye” value in data set [12] is “○ ○ ○ ○”. Also, at urease [13] (Stabilizer:Enzyme = 0.1:1), the “Enzyme activity retention rate(%) (after 30 days) Stabilizer: Enzyme = 0.1:1” value was found to be 15%. Further, the “Enzyme activity retention rate(%) (after 30 days) Stabilizer: Enzyme = 10:1” value at urease [13] (Stabilizer:Enzyme = 10:1) was 35%. The “Redispersibility Titanium oxide” value in data set [14] is reported as “○ ○ ○ ○”.
